Data: patent US20230146455A1, “TREATMENT OF INFLAMMATORY DISEASES WITH PEPTIDES AND PHARMACEUTICAL COMPOSITIONS” (Yuyu Pharma, Inc., priority 2020, published 2023)
Values joined by “and” are separate entries in the source; they are usually repeats but may differ in a detail not shown here. Equal values may be shown once. Where a SMILES comes first, the peptide text is derived from it. [ ]: non-standard residue; d: D form. Hyp = O=C(O)[C@@H]1C[C@@H](O)CN1

Test system: Leptin
Experiment: Example 8 main study Luminex, LPS hPBMCs: Leptin
Assay type: cell-based, human
Description: Human PBMCs were pretreated with YY-101, YDE-011, YDE-043 or reference compound; Xiidra® at various concentration (ranging from […] to 500 nM) for 2 h before stimulation. An equal volume of 0.5% DMSO was used as a vehicle control. Then, the cells were treated with LPS at 5 ug/ml, which was selected based on the pilot study. The supernatants from treated cells were harvested at 24 h and placed in a 96 well for Luminex cytokine & chemokine profiling using a Luminex 200 multiplex assay (Luminex; R&D system, USA).
The main study arm with triplicate wells per group in a 24-well plate: • 1. Blank • 2. PBMC: 0.5% DMSO • 3. PBMC+LPS (5 ug/ml) • 4. PBMC+YY-101 500 nM • 5. PBMC+YY-101 50 nM • 6. PBMC+YY-101 5 nM • 7. PBMC+YY-101 0.5 nM • 8. PBMC+LPS (5 ug/ml)+Xiidra® 500 nM • 9. PBMC+LPS (5 ug/ml)+Xiidra® 50 nM • 10. PBMC+LPS (5 ug/ml)+Xiidra® 5 nM • 11. PBMC+LPS (5 ug/ml)+Xiidra® 0.5 nM • 12. PBMC+LPS (5 ug/ml)+Xiidra® 0.05 nM • 13. PBMC+LPS (5 ug/ml)+Xiidra® 0.005 nM • 14. PBMC+LPS (5 ug/ml)+YY-101 500 nM • 15. PBMC+LPS (5 ug/ml)+YY-101 50 nM • 16. PBMC+LPS (5 ug/ml)+YY-101 5 nM • 17. PBMC+LPS (5 ug/ml)+YY-101 0.5 nM • 18. PBMC+LPS (5 ug/ml)+YY-101 0.05 nM • 19. PBMC+LPS (5 ug/ml)+YY-101 0.005 nM • 20. PBMC+LPS (5 ug/ml)+YDE-011 500 nM • 21. PBMC+LPS (5 ug/ml)+YDE-011 50 nM • 22. PBMC+LPS (5 ug/ml)+YDE-011 5 nM • 23. PBMC+LPS (5 ug/ml)+YDE-011 0.5 nM • 24. PBMC+LPS (5 ug/ml)+YDE-011 0.05 nM • 25. PBMC+LPS (5 ug/ml)+YDE-011 0.005 nM • 26. PBMC+LPS (5 ug/ml)+YDE-043 500 nM • 27. PBMC+LPS (5 ug/ml)+YDE-043 50 nM • 28. PBMC+LPS (5 ug/ml)+YDE-043 5 nM • 29. PBMC+LPS (5 ug/ml)+YDE-043 0.5 nM • 30. PBMC+LPS (5 ug/ml)+YDE-043 0.05 nM • 31. PBMC+LPS (5 ug/ml)+YDE-043 0.005 nM
Multiplex assay was used to measure 30 cytokines and chemokines. The 1:200 diluted cell supernatant and serial dilution of the standard were dispensed into a 96 well plate at 50 ul/well. Then, the pre-mixed cocktail of antibody-coated magnetic beads was dispensed at 50 ul/well and incubated at room temperature for 2 h in a horizontal orbital microplate shaker at 800±500 rpm. The beads were washed using a magnetic device to prevent loss. The biotin-antibody was dispensed in 50 ul of each well and incubated at room temperature for 1 h in a shaker at 800±500 rpm. After washing, streptavidin-PE was added at 50 ul/well and incubated at room temperature for 30 min in a shaker under the same conditions. Finally, after washing, wash buffer (100 ul/well) was added to the plate and incubated in a shaker for 2 min. The Luminex™ 200 setting were set according to the manufacturer's protocol. The data was calculated with a standard five-parameter logistic nonlinear regression analysis of the data (xPonent software 4.2, USA). Results were presented as concentration (ng/ml or pg/ml).

[1] = PBMC + LPS(5 ug/ml), test article 0.005 nM
[2] = PBMC + LPS(5 ug/ml), test article 0.05 nM
[3] = PBMC + LPS(5 ug/ml), test article 0.5 nM
[4] = PBMC + LPS(5 ug/ml), test article 5 nM
[5] = PBMC + LPS(5 ug/ml), test article 50 nM
[6] = PBMC + LPS(5 ug/ml), test article 500 nM
[7] = PBMC without LPS, test article 0.5 nM
[8] = PBMC without LPS, test article 5 nM
[9] = PBMC without LPS, test article 0.05 uM
[10] = PBMC without LPS, test article 50 nM
[11] = PBMC without LPS, test article 500 nM

| Compound | Leptin Concentration (pg/ml), Mean [1] [pg/mL] | Leptin Concentration (pg/ml), single replicates [1] | Leptin Concentration (pg/ml), Mean [2] [pg/mL] | Leptin Concentration (pg/ml), single replicates [2] | Leptin Concentration (pg/ml), Mean [3] [pg/mL] | Leptin Concentration (pg/ml), single replicates [3] | Leptin Concentration (pg/ml), Mean [4] [pg/mL] | Leptin Concentration (pg/ml), single replicates [4] | Leptin Concentration (pg/ml), Mean [5] [pg/mL] | Leptin Concentration (pg/ml), single replicates [5] | Leptin Concentration (pg/ml), Mean [6] [pg/mL] | Leptin Concentration (pg/ml), single replicates [6] | other results |
| --- | --- | --- | --- | --- | --- | --- | --- | --- | --- | --- | --- | --- | --- |
| CC(C)C[C@H](NC(=O)CNC(=O)[C@H](CC(C)C)NC(=O)[C@H](CCC(N)=O)NC(=O)CNC(=O)[C@@H]1C[C@@H](O)CN1)C(=O)N[C@@H](C)C(=O)NCC(=O)N1CCC[C@H]1C(=O)N[C@@H](CCCCN)C(=O)O [YDE-011] (H-[Hyp]GQLGLAGPK-OH) | 14975.6 | 17222.7 pg/ml (2×) and 10481.4 pg/ml | 14835.2 | 19789.4 pg/mL and 10481.4 pg/mL and 14234.9 pg/mL | 9683.0 | 10481.4 pg/mL and 4332.6 pg/mL and 14234.9 pg/mL | 10777.7 | <98.95 pg/mL and 4332.6 pg/mL and 17222.7 pg/mL | 12358.1 | 10481.4 pg/mL and 14234.9 pg/mL and <98.95 pg/mL | 13896.3 | 19789.4 pg/mL and <98.95 pg/mL and 8003.2 pg/mL |  |
| CC(C)C[C@H](NC(=O)[C@H](CCC(N)=O)NC(=O)CNC(=O)[C@@H]1C[C@@H](O)CN1)C(=O)NCC(=O)O [YDE-043] (H-[Hyp]GQLG-OH; N-terminus and C-terminus assumed) | 19724.6 | 18547.4 pg/ml (2×) and 22079.2 pg/ml | 10481.4 | 10481.4 pg/ml and <98.95 pg/ml (2×) | 15646.1 | 12493.0 pg/ml and 17222.7 pg/ml (2×) | 15505.7 | 19789.4 pg/mL and 12493.0 pg/mL and 14234.9 pg/mL | 18458.0 | 15795.3 pg/ml and 19789.4 pg/ml (2×) | 10678.9 | 17222.7 pg/mL and 4332.6 pg/mL and 10481.4 pg/mL |  |
| CC(C)C[C@H](NC(=O)CNC(=O)[C@H](CC(=O)O)NC(=O)[C@H](CCC(N)=O)NC(=O)CNC(=O)[C@@H]1C[C@@H](O)CN1)C(=O)N[C@@H](C)C(=O)NCC(=O)N1CCC[C@H]1C(=O)N[C@@H](CCCCN)C(=O)O [YY-101] (H-[Hyp]GQDGLAGPK-OH; N-terminus and C-terminus assumed) | 16686.7 | 19789.4 pg/ml (2×) and 10481.4 pg/ml | 16746.9 | 17222.7 pg/ml (2×) and 15795.3 pg/ml | 16226.8 | 17222.7 pg/ml (2×) and 14234.9 pg/ml | 21157.1 | 22079.2 pg/mL and 17222.7 pg/mL and 24169.3 pg/mL | 15230.8 | 17222.7 pg/ml and 14234.9 pg/ml (2×) | 18933.8 | 19789.4 pg/ml (2×) and 17222.7 pg/ml | Leptin Concentration (pg/ml), Mean [7]: 15728.8 pg/mL; Leptin Concentration (pg/ml), single replicates [7]: 14234.9 pg/mL and 17222.7 pg/mL; Leptin Concentration (pg/ml), Mean [8]: 19092.9 pg/mL; Leptin Concentration (pg/ml), single replicates [8]: 17222.7 pg/mL and 20963.1 pg/mL; Leptin Concentration (pg/ml), Mean [9]: 18506.0 pg/mL; Leptin Concentration (pg/ml), single replicates [9]: 19789.4 pg/mL and 17222.7 pg/mL; Leptin Concentration (pg/ml), Mean [10]: 24092.8 pg/mL; Leptin Concentration (pg/ml), single replicates [10]: 26106.3 pg/mL and 22079.2 pg/mL; Leptin Concentration (pg/ml), Mean [11]: 20376.3 pg/mL; Leptin Concentration (pg/ml), single replicates [11]: 19789.4 pg/mL and 20963.1 pg/mL |
